Here are results for three molecules from patent publication US8822463B2, “Methylcyclohexane derivatives and uses thereof” (Sk Biopharmaceuticals Co., Ltd., priority 2010, dated 2014).

Assay [1] deals with neuropathic pain (mechanical allodynia) in rats with caudal nerve damage. The experiment in a line: Pain relief test using animal model (caudal nerve damage neuropathic pain, mechanical allodynia). To be noted: ip, rat, von Frey, reference concentration 30 mg/kg, read-out: Pain test results (% MPE, 50% tail withdrawal threshold). Format: in vivo. As for the experimental part:
Male rats (Sprague-Dawley, 150-200 g, 6-week old, Orient Bio Co., Ltd) were purchased and acclimated in an animal chamber for one week. The animal chamber was alternately turned on and off at a time interval of 12 hours, at a temperature of 22 to 25° C., and in a relative humidity of 40-60%, and water and feed was supplied ad libitum to the rats.
The rats were placed in a round acryl container (5.5 15, 6.5 18 cm, which varied according to the size of body) and only the tails thereof were taken out of the container and placed on a plate. To confirm a pain behavior corresponding to a mechanical stimulus, an up-down method (J. Neurosci. Methods 53:55-63) was performed using a von Frey filament so as to measure “50% tail withdrawal threshold.
During all the steps before surgery, anesthesia was maintained with a mixed gas including 2-3% enflurane and 95% oxygen.
The compounds were each prepared as a solution form by using 5% DMSO, 5% Cremophore, and 90% distilled water on a volumetric basis. Each of the solutions was intraperitoneally administered in a volume of 3 ml per kg of a rat. The concentration of the compounds was controlled according to a compound and the concentration of reference was 30 mg/kg. […]
Anti-allodynic effects of the compounds were described as mean±SEM, and were compared each other by referring to “% MPE (the percentage of maximum possible effect),” and analyzed using one-way ANOVA and Bonferroni's t-test. […] [% MPE=(the threshold with respect to time after the drug treatment−the threshold at 0 hr)/(15−the threshold at 0 hr)×100]

Assay [2] relates to LPS-induced NO production in mouse monocytes (RAW). The experiment in a line: LPS-induced NO production inhibition test, mouse monocytes (RAW). It is filed as cell-based. To be noted: Monocyte, RAW cells, 20 ng/ml LPS, 24 hours, Griess reagent. As for the experimental part: (§1) Mouse monocytes (RAW) and mouse microglia (BV2) cells were cultured on a 96-well transparent plate (Nunc) in such a way that each of the wells contained 60,000 and 35,000 cells respectively. After 18 hours, when stabilized, the cells were treated with lipopolysaccharide (Sigma, USA, Cat No. L2630) in a morbid state derived from 20 ng/ml of Escherichia coli O111:B4 and 4 different concentrations (50 uM, 12.5 uM, 3.1 uM, and 0.8 uM) of the compounds synthesized according to Examples 1 to 55. Then, the cells were cultured for 24 hours, and a concentration of increased NO was measured. The NO concentration was determined by measuring absorption at a wavelength of 540 nm after a Griess reagent including 0.1% N-(1-naphthyl)ethylenediamine dihydrochloride, 1% sulfanilamide, and 2.5% phosphoric acid were added thereto.

For assay [3], the system named is LPS-induced NO production in mouse microglia (BV2). Nature of the assay: LPS-induced NO production inhibition test, mouse microglia (BV2). To be noted: BV-2, BV2 cells, 20 ng/ml LPS, 24 hours, Griess reagent. Format: cell-based. As for the experimental part:
as §1

Setting [4] is: at 4 hours after intraperitoneal administration.

Where two headings read alike, the source gives them in different places.

For the molecule `O=C(NC1CCC(COC(=O)N2CCCC2)CC1)OCc1ccccn1` (stereo not drawn) [Example 40, pyrrolidine-1-carboxylic acid 4-(pyridin-2-ylmethoxycarbonylamino)-cyclohexylmethyl ester], the inhibition in vivo in assay [1] (setting [4]) turned out to be 11%. The IC50 in assay [2] and in assay [3] was more than 50 µM each time.

For `O=C(NC1CCC(COC(=O)N2CCCC2)CC1)OCc1ccncc1` (stereo not drawn) [Example 42, pyrrolidine-1-carboxylic acid 4-(pyridin-4-ylmethoxycarbonylamino)-cyclohexylmethyl ester], the inhibition in vivo in assay [1] (setting [4]) is 57%. Further, the half-maximal inhibitory concentration (IC50) is 50 µM in assay [2] and more than 50 µM in assay [3].

For `O=C(NCc1ccncc1)OC1CCC(CNC(=O)N2CCCC2)CC1` (stereo not drawn) [Example 54, pyridin-4-ylmethyl-carbamic acid 4-{[(pyrrolidine-1-carbonyl)-amino]-methyl}-cyclohexyl ester], the inhibition in vivo in assay [1] (at 1 hour after intraperitoneal administration) worked out at 10.5%. For the same molecule, the IC50 was 48.7 µM in assay [2] and more than 50 µM in assay [3].
